{"source": "paper PMC3625590", "about": "“NBM-T-L-BMX-OS01, Semisynthesized from Osthole, Is a Novel Inhibitor of Histone Deacetylase and Enhances Learning and Memory in Rats” (Evidence-based Complementary and Alternative Medicine : eCAM, 2013)", "key": {"[1]": {"set-up": "method as in PMID 20010553", "conditions": "cited from earlier work"}, "[2]": {"tested_on": "naïve rats", "test": "Passive one-way inhibitory avoidance learning, naïve rats", "format": "in vivo, Sprague-Dawley rats", "conditions": "5 mg/kg/d i.p., 1 day and 7 days after footshock", "experimental": "SAHA was supplied by NatureWise Biotech and Medicals Corporation (Taipei, Taiwan). […] (St. Louis, MO, USA). The BMX and SAHA stock (100 mg/mL) was dissolved in DMSO and diluted with saline to a final concentration of 0.5 mg/mL (in 0.5% DMSO/saline). […] SD rats were randomly divided into 3 groups. For the naïve animal experiments, the BMX-injected or SAHA-injected groups were injected with BMX (5 mg/kg/d) or SAHA (5 mg/kg/d) intraperitoneally 7 d prior to behavioral experiments and during the experimentation. The control group received the 0.5% DMSO/saline injection. The injection volume was 10 μL/g of body weight. The injections were performed once per day. For the amnesia experiment, the protocol was adopted from previous studies with modifications. […] The control group received the 0.5% DMSO/saline injection. The injection volume was 10 μL/g of body weight. […] The apparatus consisted of a trough-shaped alley divided by a sliding door that separates an illuminated safety compartment and a dark compartment. A shock generator that produced current was connected to the floor of the dark compartment (UGO Basile, Comerio (VA), Italy). The method used was adopted from that of previous studies with modifications. The behavioral task, including the training and testing procedures, was recorded between 8:00 AM and 6:00 PM. […]"}, "[3]": {"tested_on": "primary hippocampal neurons", "test": "MTT cell survival assay", "format": "cell-based, Sprague-Dawley rats", "conditions": "1, 2.5, 5 and 10 μM, DIV 5, 24 h", "experimental": "(§1) The primary hippocampal culture was prepared as described previously. To culture embryonic hippocampal primary neurons, pregnant Sprague-Dawley rats were purchased from the National Laboratory Center in Taiwan. The hippocampal tissue from the embryos of the Sprague-Dawley rats (E19) was dissociated with 100 U/mL of papain (Sigma-Aldrich) and plated onto poly-L-lysine-coated coverslips at a density of 1 × 10^4 cells/cm^2 with a minimal essential medium containing 5% calf serum, 5% horse serum, and 50 ng/mL insulin-transferrin-selenite (Sigma-Aldrich). Three hours after plating, the medium was replaced with 2% of a B27-neurobasal medium (Invitrogen, Carlsbad, CA, USA) containing 0.5 mM glutamine and 12.5 μM glutamate.\nCell viability was evaluated by an MTT (3-(4,5-dimethylthiazol-2-yl)-2,5-diphenyl tetrazolium bromide, Sigma-Aldrich) assay 24 h after SAHA and BMX treatment at concentrations of 0, 1, 2.5, 5, and 10 μM. The protocol was performed as described previously. Cells were incubated with an MTT (0.5 mg/mL) reagent (Sigma-Aldrich) at 37°C for 1 h. The MTT solution was removed, and DMSO was added to the wells shaken at room temperature for 1 h. The amount of MTT formazan product was quantified by measuring its absorbance at 570 and 630 nm by using an ELISA plate reader (SpectraMax M2 Microplate Readers, Molecular Devices, Sunnyvale, CA, USA)."}, "[4]": {"tested_on": "primary hippocampal neurons", "test": "Neurite outgrowth by immunocytochemistry", "format": "cell-based, Sprague-Dawley rats", "experimental": "as §1\nSupplemental Materials and Methods\n2.1. HEK293T cells. HEK293T cells were maintained in Dulbecco’s modified Eagle’s medium (Invitrogen) supplemented with 10% fetal calf serum (Invitrogen). Cultures were maintained in a humidified 5% CO2-95% air atmosphere at 37°C.\n2.2. Immunocytochemistry. Cultured hippocampal neurons were fixed with 4% paraformaldehyde for 15 min and permeablized with 0.1% Triton X-100 for 20 min at room temperature (RT). The primary Mouse anti-β III tubulin and anti-actin (Millipore) Abs were added for 1 h at RT. […]\nThe lysate was resolved by 8% SDS-PAGE. […] The protein bands were quantified using the NIH Image J Software. […]"}}, "data": [{"smiles": "O=C(CCCCCCC(=O)Nc1ccccc1)NO", "note": "[SAHA, suberoylanilide hydroxamic acid, reference compound]", "values": [{"measurement": "crossing of the blood-brain barrier", "setting": "[1]", "result": "cross the blood-brain barrier (BBB)"}, {"measurement": "retention time in the illuminated chamber", "setting": "[2]", "result": "No difference in retention performance"}, {"measurement": "survival rate of primary hippocampal neurons (MTT)", "setting": "[3]", "result": "reduced the survival rate of the hippocampal neurons at concentrations of 2.5, 5, and 10 μM"}, {"measurement": "neurite branch and neurite length", "setting": "[4]", "result": "increased the neurite length in particular"}]}]}
